Earlier results in US20230133919A1, “COMPOSITIONS AND RELATED METHODS FOR REDUCING VAPOR EFFECT OF VOLATILE HERBICIDES” (BOARD OF TRUSTEES OF MICHIGAN STATE UNIVERSITY, priority 2020, published 2023).

Details: approximate

Compound	vapor pressure
CCCCC(CC)COC(=O)COc1ccc(Cl)cc1Cl (stereo not shown) [2,4-D (2-ethylhexyl ester)]	~4.8×10^−4 Pa
CCCCOCCOC(=O)COc1ccc(Cl)cc1Cl [2,4-D (butoxyethyl ester)]	~3.2×10^−4 Pa
CNC.O=C(O)COc1ccc(Cl)cc1Cl [2,4-D (dimethylamine salt)]	~1.3×10^−5 Pa
CC(C)OC(=O)COc1ccc(Cl)cc1Cl [2,4-D (isopropyl ester)]	~1.9×10^1 Pa
